Data on 15 compounds can be found in US6762182B1, “Converting cox inhibition compounds that are not COX-2 selective inhibitors to derivatives that are COX-2 selective inhibitors” (Vanderbilt University, priority 1999, dated 2004).

For assay [1], the target named is T1, COX-2 (Homo sapiens, UniProt P35354).
T1 sequence (P35354 18-604): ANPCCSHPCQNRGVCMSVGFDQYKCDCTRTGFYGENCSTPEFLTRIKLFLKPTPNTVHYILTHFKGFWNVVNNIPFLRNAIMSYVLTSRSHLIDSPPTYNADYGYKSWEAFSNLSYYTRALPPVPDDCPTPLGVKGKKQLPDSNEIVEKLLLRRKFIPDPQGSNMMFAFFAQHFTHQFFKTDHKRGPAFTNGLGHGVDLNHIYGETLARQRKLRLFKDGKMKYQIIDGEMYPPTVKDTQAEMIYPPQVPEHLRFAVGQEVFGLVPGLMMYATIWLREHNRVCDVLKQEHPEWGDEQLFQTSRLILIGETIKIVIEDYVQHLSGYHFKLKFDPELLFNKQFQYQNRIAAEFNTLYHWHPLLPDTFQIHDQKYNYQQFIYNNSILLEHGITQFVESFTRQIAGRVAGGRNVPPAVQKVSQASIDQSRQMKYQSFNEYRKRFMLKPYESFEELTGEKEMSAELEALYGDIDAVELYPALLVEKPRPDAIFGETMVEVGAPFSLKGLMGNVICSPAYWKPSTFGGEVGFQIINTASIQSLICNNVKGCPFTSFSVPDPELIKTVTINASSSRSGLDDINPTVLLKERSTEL
Description: TLC assay, inhibition of purified human COX-2. It counts as biochemical. Particulars: for IC50: human COX-2 (66 nM).
Description: (§1) Ovine COX-1 was used because it is very easy to isolate and to purify the enzyme from sheep seminal vesicles, whereas human COX-1 is normally obtained by over expression in an insect cell system and is very difficult to handle and especially to purify. COX-1 from sheep is >90% similar to COX-1 from humans. […] COX-1 was purified from ram seminal vesicles obtained from Oxford Biomedical Research, Inc. (Oxford, Mich.). […] The enzymes obtained after purification were apo (i.e., they lacked the hemprosthetic group).
(§2) Reactions were terminated by solvent extraction in Et2O/CH3OH/1 M citrate, pH 4.0 (30:4:1). The phases were separated by centrifugation at 2000 g-force for 2 minutes and the organic phase was spotted on a TLC plate (obtained from J. T. Baker, Phillipsburg, N.J.). The plate was developed in EtOAc/CH2Cl2/glacial AcOH (75:25:1) at 4° C. Radiolabeled prostanoid products were quantitatively determined with a radioactivity scanner (obtained from Bioscan, Inc., Washington, D.C.).

The target in a further assay is T2, ovine COX-1 (Ovis aries, UniProt P05979).
T2 sequence (P05979 25-600): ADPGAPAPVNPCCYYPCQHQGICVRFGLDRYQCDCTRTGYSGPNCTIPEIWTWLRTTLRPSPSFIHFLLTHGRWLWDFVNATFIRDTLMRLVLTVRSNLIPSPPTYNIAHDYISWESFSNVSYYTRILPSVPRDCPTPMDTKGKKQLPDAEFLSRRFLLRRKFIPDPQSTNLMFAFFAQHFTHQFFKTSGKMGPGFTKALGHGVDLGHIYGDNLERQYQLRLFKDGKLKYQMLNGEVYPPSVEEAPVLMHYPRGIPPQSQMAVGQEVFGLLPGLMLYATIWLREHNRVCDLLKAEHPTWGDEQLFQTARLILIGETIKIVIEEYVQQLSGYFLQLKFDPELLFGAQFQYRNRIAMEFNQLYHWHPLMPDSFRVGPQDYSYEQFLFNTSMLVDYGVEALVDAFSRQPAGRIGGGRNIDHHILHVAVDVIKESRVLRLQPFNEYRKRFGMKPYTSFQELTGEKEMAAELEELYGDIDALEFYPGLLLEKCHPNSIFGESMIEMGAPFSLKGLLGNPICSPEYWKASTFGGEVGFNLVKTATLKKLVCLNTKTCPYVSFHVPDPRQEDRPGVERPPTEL
As to the kind of experiment: TLC assay, inhibition of purified ovine COX-1.

Assay [2] has as its system carrageenan-induced rat foot pad edema. Description: Rat foot pad edema model (carrageenan). In kind it is in vivo. To be noted: for 3 hour edema: gavage 1 hour post carrageenan, 6 rats. (In general: The carrageenan paw model is a standard test of acute inflammation.)
Description: Rats were injected with carrageenan, which triggers a rapid edema (swelling) within 3 hours that can be quantitatively measured by volume displacement.
In these experiments, the carrageenan that was injected was in 0.1 mL of aqueous saline so that 0.1 mL volume increase was due to the injection alone. […] More specifically, male Sprague-Dawley rats (150 g) received a subplantar injection of carrageenan (0.1 mL of a 1% suspension of carrageenan in sterile aqueous saline) into the right hind footpad while mildly anesthetized with methoxyflurane. […] The ipsilateral footpad volume (mL) was measured with a water displacement plethysmometer at time=3 hours post-injection and compared to the time=0 pre-injection paw volume for edema calculations.
Assay [3] has as its target T1, COX-2. Particulars: background; cited from earlier work.
In a further assay the target is COX-1 (Homo sapiens, UniProt P23219). Particulars: background; cited from earlier work.
Sequence of COX-1 (P23219 24-599): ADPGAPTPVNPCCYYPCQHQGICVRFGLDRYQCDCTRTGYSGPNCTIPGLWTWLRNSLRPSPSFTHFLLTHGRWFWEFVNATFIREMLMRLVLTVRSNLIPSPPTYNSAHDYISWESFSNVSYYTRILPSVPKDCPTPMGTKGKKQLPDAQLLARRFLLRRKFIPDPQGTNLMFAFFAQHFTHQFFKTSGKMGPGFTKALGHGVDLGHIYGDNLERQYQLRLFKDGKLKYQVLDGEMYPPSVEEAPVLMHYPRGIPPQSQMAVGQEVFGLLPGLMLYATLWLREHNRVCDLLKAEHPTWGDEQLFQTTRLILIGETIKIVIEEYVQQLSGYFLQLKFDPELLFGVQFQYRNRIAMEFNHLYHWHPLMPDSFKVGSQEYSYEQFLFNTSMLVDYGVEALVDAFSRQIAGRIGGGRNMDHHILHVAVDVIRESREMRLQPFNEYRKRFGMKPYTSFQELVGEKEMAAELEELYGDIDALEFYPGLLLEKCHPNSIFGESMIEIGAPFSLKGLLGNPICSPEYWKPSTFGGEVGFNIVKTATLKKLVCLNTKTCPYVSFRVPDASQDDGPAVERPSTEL
[4] abbreviates: Table 2 amide derivatives, 20 min, then 1-14C-AA (50 μM) 37° C. 30 sec.
The mark [5] stands for this setting: read-out: IC50 (μM) COX-1, Table 2 amide derivatives, ovine COX-1 (44 nM), 20 min, then 1-14C-AA (50 μM) 37° C. 30 sec.
Setting [6] is: read-out: IC50 (μM) COX-1, Table 1 ester derivatives, ovine COX-1 (44 nM), 20 min at rt, then 14C-AA (50 μM) 37° C. 30 sec.

Like-named read-outs stand apart in the source and are kept apart here.

Description for ovine COX-1: as §1, §2

For orientation: IC50 means the midpoint of a concentration-inhibition curve. Take `COc1ccc2c(c1)c(CC(=O)Nc1cc(OC)c(OC)c(OC)c1)c(C)n2C(=O)c1ccc(Cl)cc1` [Compound 46, Indomethacin-N-(3,4,5-trimethoxyphenyl) amide]: the “Selectivity, ratio of IC50 (COX-1):IC50 (COX-2)” value at COX-2 [1] (Table 2 amide derivatives) was above 66. The values for the half-maximal inhibitory concentration (IC50) at COX-2 [1] (setting [4]) and at ovine COX-1 (setting [5]) were above 1 µM and above 66 µM, respectively. On to `COc1ccc2c(c1)c(CC(=O)Nc1nc(C)cs1)c(C)n2C(=O)c1ccc(Cl)cc1` [Compound 57, Indomethacin-N-2-(4-methylthiazolyl) amide], for which the half-inhibitory concentration (IC50) at ovine COX-1 (setting [5]) was above 66 µM.

For `COc1ccc2c(c1)c(CC(=O)Nc1ccc(NC(C)=O)cc1)c(C)n2C(=O)c1ccc(Cl)cc1` [Compound 41, Indomethacin-N-(4-acetamidophenyl) amide], the “3 hour edema” value in assay [2] (Concentration 0.2 mg/mL) was determined as 0.55 mL; in assay [2] (Concentration 0.5 mg/mL) it was 0.47 mL; in assay [2] (Concentration 1.0 mg/mL), 0.39 mL; in assay [2] (Concentration 2.0 mg/mL), 0.38 mL. Moreover, in assay [2] (rat, 2 mg/kg orally 1 hour after carrageenan, corrected for 0.1 mL injection volume), the reduction in inflammation is reported as 80-85%.

As for `CCCCCCCCOC(=O)Cc1c(C)n(C(=O)c2ccc(Cl)cc2)c2ccc(OC)cc12` [Compound 16, Indomethacin octyl ester], the 50% inhibitory concentration (IC50) at ovine COX-1 is above 66 µM. For the compound `CC1=C(CC(=O)O)c2cc(F)ccc2/C1=C\c1ccc(S(C)(=O)=O)cc1` [sulindac sulfone], the “COX-2 inhibition, in words” value on COX-2 [3] is “does not inhibit”. Besides, the “COX-1 inhibition, in words” value on COX-1 is given as “does not inhibit”. At COX-2 [1] (setting [4]), `COC(=O)[C@H](C)NC(=O)Cc1c(C)n(C(=O)c2ccc(Cl)cc2)c2ccc(OC)cc12` [Compound 52, Indomethacin-N-2-(2-L-methoxycarbonylethyl) amide] had an IC50 of 0.4 µM.

As for `COc1ccc2c(c1)c(CC(=O)Nc1ccc(Cl)nc1)c(C)n2C(=O)c1ccc(Cl)cc1` [Compound 48, Indomethacin-N-5-((2-chloro)pyridyl) amide], the “Selectivity, ratio of IC50 (COX-1):IC50 (COX-2)” value on COX-2 [1] (Table 2 amide derivatives) is on record as above 1404. For the same compound, the results for the IC50 against COX-2 [1] (setting [4]) and on ovine COX-1 (setting [5]) were 0.047 µM and above 66 µM, respectively. With `Cc1nc(-c2ccccc2)c(-c2ccc(S(N)(=O)=O)cc2)o1` [2-methyl-4-phenyl-5-sulfonamidophenyl oxazolo, reference compound], the half-maximal inhibitory concentration (IC50) at COX-2 [1] (Table 1 ester derivatives, 20 min at rt, then 14C-AA (50 μM) 37° C. 30 sec) is 0.06 µM; against ovine COX-1, above 66 µM; on ovine COX-1 (setting [6]), above 66 µM.

On ovine COX-1, `COc1ccc2c(c1)c(CC(=O)OC(C)C)c(C)n2C(=O)c1ccc(Cl)cc1` [Compound 5, Indomethacin isopropyl ester] came in with a concentration for half-maximal inhibition (IC50) of 37 µM. With `COc1ccc2c(c1)c(CC(=O)O)c(C)n2C(=O)c1ccc(Cl)cc1` [Indomethacin, reference compound], the “reduction in inflammation, in words” value in assay [2] (rat, 2 mg/kg orally) is recorded as “comparable reduction in inflammation”.

As for `COc1ccc2c(c1)c(CC(=O)Oc1ccc3ccccc3c1)c(C)n2C(=O)c1ccc(Cl)cc1` [Compound 25, Indomethacin β-naphthyl ester], the IC50 at ovine COX-1 was above 66 µM.

As to `CCCCC#CCOC(=O)Cc1c(C)n(C(=O)c2ccc(Cl)cc2)c2ccc(OC)cc12` [Compound 14, Indomethacin hept-2-ynyl ester], the concentration for half-maximal inhibition (IC50) against ovine COX-1 is above 66 µM. `CCCCCCCOC(=O)Cc1c(C)n(C(=O)c2ccc(Cl)cc2)c2ccc(OC)cc12` [Compound 11, Indomethacin heptyl ester] registered a 50% inhibitory concentration (IC50) against ovine COX-1 above 66 µM. In the case of `COC(=O)Cc1c(C)n(C(=O)c2ccc(Cl)cc2)c2ccc(OC)cc12` [Compound 2, Indomethacin methyl ester], the 50% inhibitory concentration (IC50) on ovine COX-1 is around 33 µM; at ovine COX-1 (setting [6]), 33 µM. On ovine COX-1, `CCC#CCC(C)OC(=O)Cc1c(C)n(C(=O)c2ccc(Cl)cc2)c2ccc(OC)cc12` (stereo not drawn) [Compound 15, Indomethacin 2-(hept-4-ynyl) ester] registered a half-maximal inhibitory concentration (IC50) above 66 µM.
